{
  "source": "patent US10906884B2",
  "about": "“Benzodiazepine derivatives as CCK2/gastrin receptor antagonists” (Trio Medicines Ltd, priority 2014, dated 2021)",
  "key": {"CCK1 (human)": {"biological_target": "T1, CCK1 (human) (Homo sapiens, UniProt P32238)", "T1 construct": "expressed in transfected cells; host or cells: CHO cells", "T1 sequence (P32238 1-428)": "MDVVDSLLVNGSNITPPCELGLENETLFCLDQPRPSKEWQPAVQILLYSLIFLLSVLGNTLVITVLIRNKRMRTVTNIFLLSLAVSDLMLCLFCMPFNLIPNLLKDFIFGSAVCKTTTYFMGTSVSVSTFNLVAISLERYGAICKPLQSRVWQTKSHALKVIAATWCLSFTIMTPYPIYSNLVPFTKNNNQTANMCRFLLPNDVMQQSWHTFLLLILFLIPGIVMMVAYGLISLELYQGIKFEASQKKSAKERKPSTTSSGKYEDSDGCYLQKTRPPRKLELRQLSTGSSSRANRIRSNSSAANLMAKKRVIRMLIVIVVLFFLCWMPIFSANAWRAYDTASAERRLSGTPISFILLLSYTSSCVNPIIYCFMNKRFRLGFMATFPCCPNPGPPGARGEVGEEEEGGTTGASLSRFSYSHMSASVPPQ", "assay": "CCK1 receptor functional assay (antagonist effect, cAMP, HTRF)", "format": "cell-based", "details": "stimulus CCK-8s 300 nM, 10 min 37° C., CHO cells", "description": "(§1) (TR2) and (TR3) were compared with YF476 and YM022 in CCK1 and CCK2 receptor functional assays with the following assay criteria.\n(§2) The potency of the antagonists is expressed as IC50, the concentration of antagonist that causes a half-maximum inhibition of the control agonist response. The affinity of the antagonist for the receptor is expressed as KB, the concentration of antagonist, which would occupy 50% of the receptors at equilibrium."}, "panel of 80 receptors": {"test_system": "panel of 80 receptors", "assay": "Receptor binding screen, radiolabelled ligands, scintillation counting", "details": "other than CCK2 and CCK1", "description": "The potential of (TR2) and (TR3) to bind to other cellular and nuclear receptors was tested in a panel of 80 receptors. The assay used radiolabelled receptor ligands (agonist or antagonist, depending on the receptor), and the ability of the test compounds to inhibit ligand binding was measured by scintillation counting."}, "[1]": {"test_system": "AGSGR cells (gastric adenocarcinoma cell line transfected with human gastrin/CCK2 receptor gene)", "assay": "Sulphorhodamine-B (SRB) proliferation assay, G17-treated cells", "format": "cell-based", "details": "G17 10 nM", "description": "The potency of (TR2) and (TR3) was tested in a sulphorhodamine-B (SRB) proliferation assay in a human gastric adenocarcinoma cell line stably transfected with the human gastrin/CCK2 receptor gene (AGSGR). SRB is a fluorescent dye that binds to proteins, so cells with a high rate of protein synthesis (proliferative cells) will show high levels of fluorescence in the SRB assay. […] (TR2) and (TR3) were compared with the positive controls YF476 and YM022."}, "[2]": {"test_system": "pentagastrin-stimulated gastric acid secretion", "assay": "Pentagastrin-stimulated gastric acid secretion in conscious rats with a chronic gastric fistula", "format": "in vivo", "details": "Rattus norvegicus, sc, read-out: ED50, inhibition of pentagastrin-stimulated gastric acid secretion", "description": "The effect of subcutaneous injections of YF476, (TR2) and (TR3) on pentagastrin-stimulated gastric acid secretion was tested in conscious rats with a chronic gastric fistula."}, "CCK2 (human) [3]": {"biological_target": "T2, CCK2 (human) (Homo sapiens, UniProt P32239)", "T2 sequence (P32239 1-447)": "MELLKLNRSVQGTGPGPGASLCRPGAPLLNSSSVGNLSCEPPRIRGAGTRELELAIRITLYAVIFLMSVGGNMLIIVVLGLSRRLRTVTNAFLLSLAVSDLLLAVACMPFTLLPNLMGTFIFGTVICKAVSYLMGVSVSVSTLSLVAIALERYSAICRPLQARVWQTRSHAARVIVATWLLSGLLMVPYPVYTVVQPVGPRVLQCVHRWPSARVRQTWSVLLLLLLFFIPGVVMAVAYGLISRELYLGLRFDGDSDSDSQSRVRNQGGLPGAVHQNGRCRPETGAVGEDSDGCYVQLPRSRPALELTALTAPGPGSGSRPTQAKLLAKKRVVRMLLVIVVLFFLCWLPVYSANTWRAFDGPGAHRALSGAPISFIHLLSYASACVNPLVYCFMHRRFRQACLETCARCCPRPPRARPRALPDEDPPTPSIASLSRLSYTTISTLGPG", "assay": "CCK2 receptor functional assay (antagonist effect, cAMP, HTRF)", "format": "cell-based", "design": "expressed in transfected cells; host or cells: CHO cells", "details": "for IC50 / Kb: stimulus CCK-8s 10 nM, 10 min 37° C., CHO cells; for IC50: read-out: CCK2 IC50; for Kb: read-out: CCK2 KB", "description": "as §1, §2"}, "[4]": {"assay": "Pharmacokinetics in healthy subjects, single oral dose, API in capsule", "details": "human, in vivo, po, 100 mg", "description": "In an initial study, healthy volunteers took a single oral dose of 100 mg (TR2) as an active pharmaceutical ingredient (API) in a capsule. Plasma concentrations were measured.\nIn further clinical studies, healthy volunteers (n=8) took single oral doses of 5, 15, 50 and 100 mg (TR2) as an active pharmaceutical ingredient (API) in a capsule. (Capsule formulation TR2 powder (API) in a hard gelatin capsule, no excipients, no processing). Plasma concentrations were measured.\nHealthy volunteers (n=8) took single oral doses of 5, 15, 25 and 50 mg (TR2-A) as API in a capsule (TR2-A (crystalline) in hard gelatin capsule with no excipient, no processing of the API). Plasma concentrations of (TR2) and (TR2-A) were measured. The area under the curve of plasma concentrations of (TR2) after a single oral dose of 50 mg of (TR2-A) API (AUC0-24 h=212.5) was about the same as that observed for a similar formulation of a single oral dose of (TR2) 100 mg (AUC0-24 h=241.5)."}, "CCK2 (human) [5]": {"biological_target": "T2, CCK2 (human)", "details": "cited from earlier work"}, "[6]": {"test_system": "gastrin-stimulated acid secretion", "details": "oral, healthy men; cited from earlier work"}, "panic attacks": {"test_system": "panic attacks", "details": "patients; cited from earlier work"}, "[7]": {"details": "cited from earlier work"}, "[8]": {"details": "in vivo; cited from earlier work"}},
  "data": [
    {"smiles": "CNc1cccc(NC(=O)N[C@H]2N=C(c3ccccn3)c3ccccc3N(CC(=O)C(C)(C)CO)C2=O)c1", "note": "[TR3]", "values": [
      {"measurement": "IC50", "setting": "CCK1 (human)", "result": 8.5, "unit": "µM"},
      {"measurement": "Binding to other cellular and nuclear receptors (inhibition of ligand binding)", "setting": "panel of 80 receptors", "result": "No significant receptor binding"},
      {"measurement": "Inhibition of the anti-proliferative effects of G17", "setting": "[1]; compound 500 nM", "result": "had the same effect"},
      {"measurement": "ED50", "setting": "[2]", "result": 0.3, "unit": "µmol/kg"},
      {"measurement": "Selectivity IC50 (CCK1)/IC50 (CCK2)", "setting": "CCK2 (human) [3]", "result": 86},
      {"measurement": "Selectivity KB (CCK1)/KB (CCK2)", "setting": "CCK2 (human) [3]", "result": 108},
      {"measurement": "IC50", "setting": "CCK2 (human) [3]", "result": 0.099, "unit": "µM"},
      {"measurement": "Kb", "setting": "CCK2 (human) [3]", "result": 0.012, "unit": "µM"}
    ]},
    {"smiles": "CNc1cccc(NC(=O)N[C@@H]2N=C(c3ccccn3)c3ccccc3N(CC(=O)C(C)(C)CO)C2=O)c1", "note": "[TR2, (R)-1-[1-(4-Hydroxy-3,3-dimethyl-2-oxo-butyl)-2-oxo-5-pyridin-2-yl-2,3-dihydro-1H-benzo[e][1,4]diazepin-3-yl]-3-(3-methylamino-phenyl)-urea]", "values": [
      {"measurement": "IC50", "setting": "CCK1 (human)", "result": 1, "unit": "µM"},
      {"measurement": "Binding to other cellular and nuclear receptors (inhibition of ligand binding)", "setting": "panel of 80 receptors", "result": "No significant receptor binding"},
      {"measurement": "Inhibition of the anti-proliferative effects of G17", "setting": "[1]; compound 100 nM", "result": "completely inhibited"},
      {"measurement": "ED50", "setting": "[2]", "result": 0.03, "unit": "µmol/kg"},
      {"measurement": "AUC", "setting": "[4]", "result": 439, "unit": "ng·h/mL"},
      {"measurement": "AUC(0-t)", "setting": "[4]", "result": 242, "unit": "ng·h/mL"},
      {"measurement": "Mean AUC0-24 h of plasma concentrations", "setting": "[4]", "result": 241.5, "unit": "ng·h/mL"},
      {"measurement": "Selectivity IC50 (CCK1)/IC50 (CCK2)", "setting": "CCK2 (human) [3]", "result": 400},
      {"measurement": "Selectivity KB (CCK1)/KB (CCK2)", "setting": "CCK2 (human) [3]", "result": 484},
      {"measurement": "Affinity for the CCK2 receptor, fold lower than that of YF476", "setting": "CCK2 (human) [3]; relative to YF476", "result": "about 5 fold"},
      {"measurement": "Selectivity for CCK2 over CCK1 receptor, higher than the selectivity of YF476", "setting": "CCK2 (human) [3]; relative to YF476", "result": 30, "unit": "%"},
      {"measurement": "Potency in CCK2 assay, fold less potent than YF476 and YM022", "setting": "CCK2 (human) [3]; relative to YF476 and YM022", "result": "about 5 fold"},
      {"measurement": "Affinity for the CCK2 receptor relative to YM022", "setting": "CCK2 (human) [3]; relative to YM022", "result": "twice that of YM022"},
      {"measurement": "IC50", "setting": "CCK2 (human) [3]", "result": 0.0025, "unit": "µM"},
      {"measurement": "Kb", "setting": "CCK2 (human) [3]", "result": 0.00031, "unit": "µM"}
    ]},
    {"smiles": "Cc1cccc(NC(=O)N[C@@H]2N=C(c3ccccc3)c3ccccc3N(C)C2=O)c1", "note": "[L-365,260]", "values": [
      {"measurement": "Affinity at CCK2 receptors", "setting": "CCK2 (human) [5]", "result": "nanomolar"},
      {"measurement": "Selectivity versus the CCK1 receptor", "setting": "CCK2 (human) [5]", "result": 140, "unit": "fold"},
      {"measurement": "Inhibition of gastrin-stimulated acid secretion", "setting": "[6]", "result": "only modest and short lasting inhibition"},
      {"measurement": "Limiting panic attacks", "setting": "panic attacks", "result": "ineffective"},
      {"measurement": "Aqueous solubility", "setting": "[7]", "result": "low"},
      {"measurement": "Oral bioavailability", "setting": "[8]", "result": "poor"}
    ]}
  ]
}
